These results are taken from PubChem BioAssay AID2060361 (Molecular Pharmacology Branch, DTP, NCI, 2025).

In this assay the test system is 463943-066-T-J2-PDC tumor spheroids with HUVEC/MSC, viability. The assay can be described thus: Anticancer human tumor 463943-066-T-J2-PDC patient-derived colon adenocarcinoma cell line growth inhibition [TAK]. The settings on record: for viability, T/C: stronger effect = lower value. Put shortly: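 Spheroids of 60% malignant cells, 25% HUVEC and 15% hMSC were exposed to targeted agents combined with TAK-243 or ipatasertib. Concentrations started at or near clinical Cmax (10 microM if unknown) and descended in half-log steps.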

The mark [1] stands for this setting: curve of first compound, second compound 0.3 µM.
The mark [2] stands for this setting: curve of first compound, second compound 0.949 µM.
[3] abbreviates: curve of first compound, second compound 3 µM.
Setting [4] is: curve of first compound, second compound 9.49 µM.
[5] abbreviates: curve of first compound, second compound 30 µM.

Values joined by “and” are separate entries in the source; they are usually repeats but may differ in a detail not shown here. Equal entries are not always repeated. A value given as a limit tells only on which side of the number the result lay.
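Also: spheroids exposed to drugs for seven days.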
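For viability, T/C in this document: 100% = DMSO vehicle control wells.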

For orientation: IC50 means the concentration needed to halve the response being measured. One may read the viability, T/C as the result in the treated group divided by that in the control group, in per cent. With `CC(C)CC(NC(=O)CNC(=O)c1cc(Cl)ccc1Cl)B1OC(=O)CC(CC(=O)O)(C(=O)O)O1` (configuration not stated) + CC(C)NCC(C(=O)N1CCN(c2ncnc3c2C(C)CC3O)CC1)c1ccc(Cl)cc1, the IC50 was above 0.1 µM under setting [1]; above 0.1 µM under setting [2]; above 0.1 µM under setting [3]; above 0.1 µM under setting [4]; above 0.1 µM under setting [5]. For the same compound, the viability, T/C reads like this: (second compound 0.3 µM, first compound 0.000316 µM) 117%; (second compound 0.3 µM, first compound 0.001 µM) 107%; (second compound 0.3 µM, first compound 0.00316 µM) 106%; (second compound 0.3 µM, first compound 0.01 µM) 101%; (second compound 0.3 µM, first compound 0.0316 µM) 88.8%; (second compound 0.3 µM, first compound 0.1 µM) 80.5%. Moreover, the viability, T/C by setting is: (second compound 0.949 µM, first compound 0.000316 µM) 98.3%; (second compound 0.949 µM, first compound 0.001 µM) 102%; (second compound 0.949 µM, first compound 0.00316 µM) 99%; (second compound 0.949 µM, first compound 0.01 µM) 105%; (second compound 0.949 µM, first compound 0.0316 µM) 86.9%; (second compound 0.949 µM, first compound 0.1 µM) 72.6%. Further, the viability, T/C was 116% (second compound 3 µM, first compound 0.000316 µM); 98.9% (second compound 3 µM, first compound 0.001 µM); 95.4% (second compound 3 µM, first compound 0.00316 µM); 98.5% (second compound 3 µM, first compound 0.01 µM); 83.5% (second compound 3 µM, first compound 0.0316 µM); 80.7% (second compound 3 µM, first compound 0.1 µM). Besides, the viability, T/C is, setting by setting: (second compound 9.49 µM, first compound 0.000316 µM) 91.4%; (second compound 9.49 µM, first compound 0.001 µM) 123%; (second compound 9.49 µM, first compound 0.00316 µM) 97.2%; (second compound 9.49 µM, first compound 0.01 µM) 95.2%; (second compound 9.49 µM, first compound 0.0316 µM) 78.1%; (second compound 9.49 µM, first compound 0.1 µM) 85.7%. The viability, T/C reads like this: (second compound 30 µM, first compound 0.000316 µM) 93.8%; (second compound 30 µM, first compound 0.001 µM) 99.1%; (second compound 30 µM, first compound 0.00316 µM) 90.6%; (second compound 30 µM, first compound 0.01 µM) 90.4%; (second compound 30 µM, first compound 0.0316 µM) 81.3%; (second compound 30 µM, first compound 0.1 µM) 71.7%.

On to `COc1c(OCCCN2CCOCC2)ccc2c3n(c(=NC(=O)c4cnc(N)nc4)nc12)CCN3`, for which the viability, T/C was 93.7% and 101% (compound 0.00316 µM); 88.3% and 90.3% (compound 0.01 µM); 84.4% and 86.9% (compound 0.0316 µM); 80.3% and 85% (compound 0.1 µM); 77.4% and 77.2% (compound 0.316 µM); 68.1% and 72.1% (compound 1 µM). Further, the IC50 (curve of compound) is above 1 µM.

In the case of `Cc1nc(NC(=O)N2CCCC2C(N)=O)sc1-c1ccnc(C(C)(C)C(F)(F)F)c1` (configuration not stated), the viability, T/C (compound 0.0316 µM) is 96.2% and 102%; the viability, T/C (compound 0.1 µM) is 103% and 91.1%; the viability, T/C (compound 0.316 µM) was 87.7% and 90.1%; the viability, T/C (compound 1 µM) is 78.6% and 84.6%; the viability, T/C (compound 3.16 µM) was 81.1% and 78.6%; the viability, T/C (compound 10 µM) was 78.6% and 73.7%. Also, the IC50 (curve of compound) is above 10 µM.

Turning to `CC(C)NCC(C(=O)N1CCN(c2ncnc3c2C(C)CC3O)CC1)c1ccc(Cl)cc1` (configuration not stated), the viability, T/C is 94.2% [middle of 10 runs] (compound 0.3 µM) and 86.9% [middle of 10 runs] (compound 3 µM). The IC50 (compound alone, run of 02/28/2020) was above 30 µM.

With `CCCS(=O)(=O)Nc1ccc(F)c(C(=O)c2c[nH]c3ncc(-c4ccc(Cl)cc4)cc23)c1F` + CC(C)NCC(C(=O)N1CCN(c2ncnc3c2C(C)CC3O)CC1)c1ccc(Cl)cc1, the IC50 under setting [1] was above 100 µM; the IC50 under setting [2] was above 100 µM; the IC50 under setting [3] is above 100 µM; the IC50 under setting [4] is above 100 µM; the IC50 under setting [5] was above 100 µM. Besides, the viability, T/C (second compound 0.3 µM, first compound 0.316 µM) was 105%; the viability, T/C (second compound 0.3 µM, first compound 1 µM) was 102%; the viability, T/C (second compound 0.3 µM, first compound 3.16 µM) is 104%; the viability, T/C (second compound 0.3 µM, first compound 10 µM) was 99.7%; the viability, T/C (second compound 0.3 µM, first compound 31.6 µM) was 125%; the viability, T/C (second compound 0.3 µM, first compound 100 µM) was 105%. Moreover, the viability, T/C reads like this: (second compound 0.949 µM, first compound 0.316 µM) 108%; (second compound 0.949 µM, first compound 1 µM) 104%; (second compound 0.949 µM, first compound 3.16 µM) 103%; (second compound 0.949 µM, first compound 10 µM) 106%; (second compound 0.949 µM, first compound 31.6 µM) 64.2%; (second compound 0.949 µM, first compound 100 µM) 110%. The viability, T/C was 103% (second compound 3 µM, first compound 0.316 µM); 109% (second compound 3 µM, first compound 1 µM); 92.7% (second compound 3 µM, first compound 3.16 µM); 92% (second compound 3 µM, first compound 10 µM); 88.4% (second compound 3 µM, first compound 31.6 µM); 104% (second compound 3 µM, first compound 100 µM). In addition, the viability, T/C was 102% (second compound 9.49 µM, first compound 0.316 µM); 109% (second compound 9.49 µM, first compound 1 µM); 98.2% (second compound 9.49 µM, first compound 3.16 µM); 89.6% (second compound 9.49 µM, first compound 10 µM); 68.6% (second compound 9.49 µM, first compound 31.6 µM); 109% (second compound 9.49 µM, first compound 100 µM). Further, the viability, T/C (second compound 30 µM, first compound 0.316 µM) was 87.5%; the viability, T/C (second compound 30 µM, first compound 1 µM) is 94.7%; the viability, T/C (second compound 30 µM, first compound 3.16 µM) was 91.9%; the viability, T/C (second compound 30 µM, first compound 10 µM) is 88.9%; the viability, T/C (second compound 30 µM, first compound 31.6 µM) was 25.6%; the viability, T/C (second compound 30 µM, first compound 100 µM) is 95.8%.
